Among the data in US11078170B2 (Assembly Biosciences, Inc., priority 2017, dated 2021) are EC50 values, retold here.

Where only a bound is given, the exact number is not on record here.

This assay relates to HBV viral production from HepAD38 cells. The experiment in a line: Activity of test compounds on viral production from HepAD38 cells (viral load by qPCR of HBV core sequence in supernatant). Type of assay: cell-based. Particulars: Hepatitis B virus, 120 h, 5 days incubation, HBV DNA in supernatant by qPCR, top concentration 10 μM, read-out: Viral Load EC50 Activity range. In a few lines:
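HepAD38 cells, 50,000/well in tetracycline-free 2% FBS medium, treated 5 days at 37° C. with compound from 10 μM top concentration. HBV DNA in supernatant quantified by TaqMan qPCR of core sequence against DNA standards, relative to DMSO wells; CellTiter-Glo viability read in parallel. EC50/CC50 from four-parameter logistic fit.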
As to `CN1C(C(=O)Nc2ccc(F)c(Cl)c2)CC(c2ncc(-c3cccs3)s2)NS1(=O)=O` (racemic) [HBV-CSU-178, Cis-N-(3-Chloro-4-fluorophenyl)-2-methyl-5-(5-(thiophen-2-yl)thiazol-2-yl)-1,2,6-thiadiazinane-3-carboxamide 1,1-dioxide], the EC50 was < 1000 nM. For `CN1[C@@H](C(=O)Nc2ccc(F)c(Cl)c2)C[C@@H](c2cc(-c3cnn(C(F)(F)F)c3)cs2)NS1(=O)=O` (relative stereo) [HBV-CSU-325-ISO-II, Cis-N-(3-Chloro-4-fluorophenyl)-2-methyl-5-(4-(1-(trifluoromethyl)-1H-pyrazol-4-yl)thiophen-2-yl)-1,2,6-thiadiazinane-3-carboxamide 1,1-dioxide] the value was > 5000 nM; for `CN1[C@@H](C(=O)Nc2ccc(F)c(Cl)c2)C[C@@H](c2cccc(-c3cnn(C)c3)c2)NS1(=O)=O` [HBV-CSU-247-ISO-II, Cis-N-(3-chloro-4-fluorophenyl)-2-methyl-5-(3-(1-methyl-1H-pyrazol-4-yl)phenyl)-1,2,6-thiadiazinane-3-carboxamide 1,1-dioxide], < 1000 nM. For `CN1[C@H](C(=O)Nc2ccc(F)c(Cl)c2)C[C@H](c2ncc(-c3cncs3)s2)NS1(=O)=O` (relative stereo) [HBV-CSU-278-ISO-I, Cis-5-([5,5′-Bithiazol]-2-yl)-N-(3-chloro-4-fluorophenyl)-2-methyl-1,2,6-thiadiazinane-3-carboxamide 1,1-dioxide] the value was < 1000 nM; for `COc1ccc(-c2cnc([C@@H]3C[C@H](C(=O)Nc4ccc(F)c(Cl)c4)N(C)S(=O)(=O)N3)s2)cc1` [HBV-CSU-250-ISO-II, Cis-N-(3-Chloro-4-fluorophenyl)-5-(5-(4-methoxyphenyl)thiazol-2-yl)-2-methyl-1,2,6-thiadiazinane-3-carboxamide 1,1-dioxide], 1000 to 5000 nM; for `CN1C(C(=O)Nc2ccc(F)c(Cl)c2)CC(c2ncc(-c3ccc(F)cn3)s2)NS1(=O)=O` (racemic) [HBV-CSU-252, Cis-N-(3-Chloro-4-fluorophenyl)-5-(5-(5-fluoropyridin-2-yl)thiazol-2-yl)-2-methyl-1,2,6-thiadiazinane-3-carboxamide 1,1-dioxide], < 1000 nM. The same measure for `CN1[C@@H](C(=O)Nc2ccc(F)c(Cl)c2)C[C@@H](c2cc(-c3cccnc3)cs2)NS1(=O)=O` [HBV-CSU-167-ISO-II, Cis-N-(3-chloro-4-fluorophenyl)-2-methyl-5-(4-(pyridin-3-yl)thiophen-2-yl)-1,2,6-thiadiazinane-3-carboxamide 1,1-dioxide]: > 5000 nM. On to `C#CCCN1[C@@H](C(=O)Nc2ccc(F)c(Cl)c2)C[C@@H](c2nccs2)NS1(=O)=O` [HBV-CSU-090-ISO-II, Cis-2-(But-3-yn-1-yl)-N-(3-chloro-4-fluorophenyl)-5-(thiazol-2-yl)-1,2,6-thiadiazinane-3-carboxamide 1,1-dioxide], for which the EC50 is > 5000 nM. In the case of `CN1[C@H](C(=O)Nc2ccc(F)c(Cl)c2)C[C@H](c2ncc(-c3ccc(F)cc3)s2)NS1(=O)=O` [HBV-CSU-248-ISO-I, Cis-N-(3-Chloro-4-fluorophenyl)-5-(5-(4-fluorophenyl)thiazol-2-yl)-2-methyl-1,2,6-thiadiazinane-3-carboxamide 1,1-dioxide], the EC50 was < 1000 nM. For `CN1[C@H](C(=O)Nc2ccc(F)c(Cl)c2)C[C@H](c2ccc(-c3ccccn3)s2)NS1(=O)=O` [HBV-CSU-160-ISO-I, Cis-N-(3-chloro-4-fluorophenyl)-2-methyl-5-(5-(pyridin-2-yl)thiophen-2-yl)-1,2,6-thiadiazinane-3-carboxamide 1,1-dioxide] the value was < 1000 nM; for `Cc1cc([C@H]2C[C@@H](C(=O)Nc3ccc(F)c(Cl)c3)N(C)S(=O)(=O)N2)sc1-c1cnn(C)c1` (relative stereo) [HBV-CSU-300-ISO-I, Cis-N-(3-Chloro-4-fluorophenyl)-5-(4-methyl-5-(1-methyl-1H-pyrazol-4-yl)thiophen-2-yl)-2-methyl-1,2,6-thiadiazinane-3-carboxamide 1,1-dioxide], < 1000 nM; for `CN1C(C(=O)Nc2ccc(F)c(Cl)c2)CC(c2cccc(Cl)c2)NS1(=O)=O` (racemic) [HBV-CSU-261, Cis-N-(3-Chloro-4-fluorophenyl)-5-(3-chlorophenyl)-2-methyl-1,2,6-thiadiazinane-3-carboxamide 1,1-dioxide], < 1000 nM. The same measure for `CN1[C@H](C(=O)Nc2cccc(C#N)c2)C[C@H](c2cccs2)NS1(=O)=O` [HBV-CSU-020-ISO-I, Cis-N-(3-cyanophenyl)-2-methyl-5-(thiophen-2-yl)-1,2,6-thiadiazinane-3-carboxamide 1,1-dioxide]: < 1000 nM; for `CN1C(C(=O)Nc2ccc(F)c(Cl)c2)CC(c2ccc(-c3cnn(C)c3)cc2)NS1(=O)=O` (racemic) [HBV-CSU-246, Cis-N-(3-Chloro-4-fluorophenyl)-2-methyl-5-(4-(1-methyl-1H-pyrazol-4-yl)phenyl)-1,2,6-thiadiazinane-3-carboxamide 1,1-dioxide]: < 1000 nM. The same measure for `CC(C)n1cc(-c2ccc([C@H]3C[C@@H](C(=O)Nc4ccc(F)c(Cl)c4)N(C)S(=O)(=O)N3)s2)cn1` [HBV-CSU-292-ISO-I, Cis-N-(3-chloro-4-fluorophenyl)-5-(5-(1-isopropyl-1H-pyrazol-4-yl)thiophen-2-yl)-2-methyl-1,2,6-thiadiazinane-3-carboxamide 1,1-dioxide]: < 1000 nM; for `CN1[C@H](C(=O)Nc2ccc(F)c(Cl)c2)C[C@H](c2cc(-c3ncn(C)n3)cs2)NS1(=O)=O` [HBV-CSU-326-ISO-I, Cis-N-(3-chloro-4-fluorophenyl)-2-methyl-5-(4-(1-methyl-1H-1,2,4-triazol-3-yl)thiophen-2-yl)-1,2,6-thiadiazinane-3-carboxamide 1,1-dioxide]: < 1000 nM; for `CN1[C@@H](C(=O)Nc2ccc(F)c(Cl)c2)C[C@@H](c2ccc(F)c(F)c2)NS1(=O)=O` [HBV-CSU-230-ISO-II, Cis-N-(3-Chloro-4-fluorophenyl)-5-(3,4-difluorophenyl)-2-methyl-1,2,6-thiadiazinane-3-carboxamide 1,1-dioxide]: > 5000 nM.

For `O=C(Nc1ccc(F)c(Cl)c1)C1CC(c2cccs2)NS(=O)(=O)N1CCO` (stereo not drawn) [HBV-CSU-041, Cis-N-(3-Chloro-4-fluorophenyl)-2-(2-hydroxyethyl)-5-(thiophen-2-yl)-1,2,6-thiadiazinane-3-carboxamide 1,1-dioxide], the EC50 is > 5000 nM. The same measure for `CN1C(C(=O)Nc2cccc(C#N)c2)CC(c2cccs2)NS1(=O)=O` (racemic) [HBV-CSU-020, Cis-N-(3-cyanophenyl)-2-methyl-5-(thiophen-2-yl)-1,2,6-thiadiazinane-3-carboxamide 1,1-dioxide]: < 1000 nM; for `CN1[C@H](C(=O)Nc2ccc(F)c(Cl)c2)C[C@H](c2ccc(OCC(=O)O)cc2)NS1(=O)=O` (relative stereo) [HBV-CSU-216-ISO-I, Cis-2-(4-(5-((3-Chloro-4-fluorophenyl)carbamoyl)-6-methyl-1,1-dioxido-1,2,6-thiadiazinan-3-yl)phenoxy)acetic acid]: 1000 to 5000 nM; for `CN1[C@@H](C(=O)Nc2ccc(F)c(Cl)c2)C[C@@H](c2ccc(-c3cncn3C)s2)NS1(=O)=O` [HBV-CSU-267-ISO-II, Cis-N-(3-Chloro-4-fluorophenyl)-2-methyl-5-(5-(1-methyl-1H-imidazol-5-yl)thiophen-2-yl)-1,2,6-thiadiazinane-3-carboxamide 1,1-dioxide]: < 1000 nM. For `CN1C(C(=O)Nc2ccc(F)c(Cl)c2)CC(c2ccc(-c3ncn(C)n3)s2)NS1(=O)=O` (racemic) [HBV-CSU-322, Cis-N-(3-Chloro-4-fluorophenyl)-2-methyl-5-(5-(1-methyl-1H-1,2,4-triazol-3-yl)thiophen-2-yl)-1,2,6-thiadiazinane-3-carboxamide 1,1-dioxide] the value was < 1000 nM; for `CCn1cc(-c2csc([C@@H]3C[C@H](C(=O)Nc4ccc(F)c(Cl)c4)N(C)S(=O)(=O)N3)c2)cn1` [HBV-CSU-294-ISO-II, Cis-N-(3-chloro-4-fluorophenyl)-5-(4-(1-ethyl-1H-pyrazol-4-yl)thiophen-2-yl)-2-methyl-1,2,6-thiadiazinane-3-carboxamide 1,1-dioxide], 1000 to 5000 nM; for `CN1C(C(=O)Nc2ccc(F)c(Cl)c2)CC(c2ccc(-c3ccc(F)cn3)s2)NS1(=O)=O` (racemic) [HBV-CSU-242, Cis-N-(3-chloro-4-fluorophenyl)-5-(5-(5-fluoropyridin-2-yl)thiophen-2-yl)-2-methyl-1,2,6-thiadiazinane-3-carboxamide 1,1-dioxide], < 1000 nM. The same measure for `Cc1nn(C)cc1-c1csc([C@H]2C[C@@H](C(=O)Nc3ccc(F)c(Cl)c3)N(C)S(=O)(=O)N2)c1` [HBV-CSU-316-ISO-I, Cis-N-(3-chloro-4-fluorophenyl)-5-(4-(1,3-dimethyl-1H-pyrazol-4-yl)thiophen-2-yl)-2-methyl-1,2,6-thiadiazinane-3-carboxamide 1,1-dioxide]: < 1000 nM; for `[2H]C1[C@]([2H])(C(=O)Nc2ccc(F)c(Cl)c2)N(C)S(=O)(=O)N[C@]1([2H])c1ncc(-c2cn(C([2H])([2H])[2H])cn2)s1` (stereo in doubt) [HBV-CSU-341-ISO-II, Cis-N-(3-Chloro-4-fluorophenyl)-2-methyl-5-(5-(1-(methyl-d3)-1H-imidazol-4-yl)thiazol-2-yl)-1,2,6-thiadiazinane-3,4,5-d3-3-carboxamide 1,1-dioxide]: 1000 to 5000 nM; for `Cc1nn(C)c(C)c1-c1ccc([C@H]2C[C@@H](C(=O)Nc3ccc(F)c(Cl)c3)N(C)S(=O)(=O)N2)s1` [HBV-CSU-314-ISO-I, Cis-N-(3-chloro-4-fluorophenyl)-2-methyl-5-(5-(1,3,5-trimethyl-1H-pyrazol-4-yl)thiophen-2-yl)-1,2,6-thiadiazinane-3-carboxamide 1,1-dioxide]: < 1000 nM.

As a reminder, the EC50 is the concentration giving half of the maximal effect.
